Results as given in patent publication US20240252418A1, “Additives (Adjuvants, Anti Freezing Agents, Antimicrobial and Antioxidants) in Natural Deep Eutectic Solvents and Mixtures” (Bioeutectics Corporation, priority 2023, published 2024).

How the values were obtained:
[1] = Solubility test for common agro actives; conditions: 14% w/w analyte/solvent, 30° C., vortex and ultrasound
Description: Solubility test (for common agro actives) was carried out at the working concentration of 14% w/w analyte/solvent, initially in traditional solvents and then in our selected solvents, at 30° C. and assisted by vortex and ultrasound.

[2] = Evaporation time measurements; assay type: physicochemical; conditions: 5 μL drop of 1% solution in H2O, glass slide, room temperature
Description: Evaporation time was analyzed after applying 5 μL (one drop) of a 1% solution in water, on a glass slide at room temperature.

[3] = Wetted area of droplets on a paper sheet (pure systems); assay type: physicochemical; conditions: 5 μL drop
Description: (§1) A general procedure was developed to evaluate the wetted area of droplets. The test system was prepared with 1% of the eutectic products in water, and a miscible dye, which allowed the visualization of the wetted area droplets. To compare the ability of the pure systems to a known adjuvant, TX (Triton X-100), a nonionic surfactant that has a hydrophilic polyethylene oxide chain with, on average, 9.5 ethylene oxide units) was used and was prepared under the same conditions and compared with a water/dye blank.

[4] = test system: waxy leaves of Epipremnum aureum; assay: Wetted area of droplets on waxy leaves; assay type: physicochemical
Description: as §1
In a subsequent experiment, the wetted area of droplets was tested on waxy leaves of Epipremnum aureum. The quantitative results of those tests appear in Table 2.

[5] = Wetted area on a paper sheet (mixture systems with TX); assay type: physicochemical
Description: as §1
With the results from the pure systems on paper and a waxy leaf shown in tables 1 and 2, a subsequent test was performed wherein mixtures of the products of the present invention with TX were compared on a paper sheet. Mixtures comprising TX and the products under study were evaluated at 0.9, 0.75, 0.50, 0.25, and 0.10% (1% total concentration). […] Compared to TX/water, the mixture with TX/BOA (50/50%) increased the wetted area by around 190%, systems with TX/BOA and TX/BOA (75/25%) increased the wetted area by around 180%, while TX/BOA (25/75%) increased the wetted area by around 150% (see Table 3).

[6] = Component A TX 0.1% + Component B 0.9%
[7] = Component A TX 0.25% + Component B 0.75%
[8] = Component A TX 0.5% + Component B 0.5%
[9] = Component A TX 0.75% + Component B 0.25%
[10] = Component A TX 0.9% + Component B 0.1%

Row | Evaporation time [2] [min] | The relative evaporation time with reference to TX (min) [2] | Relative size (%) with reference to H2O ([3]; 1% in water) [%] | Relative size (%) with reference to TX ([3]; 1% in water) [%] | Area ([3]; 1% in water with dye) [mm^2] | Relative size (%) with reference to H2O [4] [%] | Relative size (%) with reference to TX [4] [%] | Area [5, 6] [mm^2] | Relative size (%) with reference to TX/H2O [5, 6] [%] | Area [5, 7] [mm^2] | Relative size (%) with reference to TX/H2O [5, 7] [%] | Area [5, 8] [mm^2] | Relative size (%) with reference to TX/H2O [5, 8] [%] | Area [5, 9] [mm^2] | Relative size (%) with reference to TX/H2O [5, 9] [%] | Area [5, 10] [mm^2] | Relative size (%) with reference to TX/H2O [5, 10] [%] | Compound | Solubility in the selected solvents [1]
1 | – | – | – | – | – | – | – | – | – | – | – | – | – | – | – | – | – | CCNc1nc(Cl)nc(NC(C)(C)C)n1 [Terbutylazine] | Soluble in 9 of our tested solvents
2 | 19.73 | 1.00 | 424.82 | 100.00 | 23.98 | 333.18 | 100.00 | 18.05 | 100.00 | 18.99 | 100.00 | 17.78 | 100.00 | 17.84 | 100.00 | 15.81 | 100.00 | Triton X-100 [TX] | –
